Measurements taken from ChEMBL document CHEMBL4376867 (J Med Chem, 2020).

Tests used:
[1] = target: T1, Serine/threonine-protein kinase 17A (Homo sapiens, UniProt Q9UEE5); test: Inhibition of wild-type human partial length DRAK1 (R32 to E363 residues) expressed in bacterial expression system by Kinomescan method
T1 sequence (Q9UEE5 whole entry): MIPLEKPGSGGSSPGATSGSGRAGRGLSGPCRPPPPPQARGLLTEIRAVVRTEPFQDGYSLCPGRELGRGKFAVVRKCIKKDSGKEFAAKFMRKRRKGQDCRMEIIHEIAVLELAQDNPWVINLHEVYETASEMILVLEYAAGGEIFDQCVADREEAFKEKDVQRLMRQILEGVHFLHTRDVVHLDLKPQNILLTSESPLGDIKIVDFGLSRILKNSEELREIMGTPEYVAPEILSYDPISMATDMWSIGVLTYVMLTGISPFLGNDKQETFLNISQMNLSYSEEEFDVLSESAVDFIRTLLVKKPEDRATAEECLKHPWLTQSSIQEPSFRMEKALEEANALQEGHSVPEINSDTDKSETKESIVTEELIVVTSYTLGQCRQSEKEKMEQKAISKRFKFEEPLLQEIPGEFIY

[2] = system: ACHN; test: Antiproliferative activity against human ACHN cells harboring CDKN2A mutation assessed as reduction in cell viability after 96 hrs by CellTiter-Glo luminescence assay; assay type: functional, cell-based
[3] = system: SK-MEL-2; test: Antiproliferative activity against human SK-MEL-2 cells harboring NRAS/TP53 mutation assessed as reduction in cell viability after 96 hrs by CellTiter-Glo luminescence assay; assay type: functional, cell-based; conditions: SK-MEL-2, 96 h
[4] = target: T2, Serine/threonine-protein kinase TBK1 (Homo sapiens, UniProt Q9UHD2)
T2 sequence (Q9UHD2 whole entry): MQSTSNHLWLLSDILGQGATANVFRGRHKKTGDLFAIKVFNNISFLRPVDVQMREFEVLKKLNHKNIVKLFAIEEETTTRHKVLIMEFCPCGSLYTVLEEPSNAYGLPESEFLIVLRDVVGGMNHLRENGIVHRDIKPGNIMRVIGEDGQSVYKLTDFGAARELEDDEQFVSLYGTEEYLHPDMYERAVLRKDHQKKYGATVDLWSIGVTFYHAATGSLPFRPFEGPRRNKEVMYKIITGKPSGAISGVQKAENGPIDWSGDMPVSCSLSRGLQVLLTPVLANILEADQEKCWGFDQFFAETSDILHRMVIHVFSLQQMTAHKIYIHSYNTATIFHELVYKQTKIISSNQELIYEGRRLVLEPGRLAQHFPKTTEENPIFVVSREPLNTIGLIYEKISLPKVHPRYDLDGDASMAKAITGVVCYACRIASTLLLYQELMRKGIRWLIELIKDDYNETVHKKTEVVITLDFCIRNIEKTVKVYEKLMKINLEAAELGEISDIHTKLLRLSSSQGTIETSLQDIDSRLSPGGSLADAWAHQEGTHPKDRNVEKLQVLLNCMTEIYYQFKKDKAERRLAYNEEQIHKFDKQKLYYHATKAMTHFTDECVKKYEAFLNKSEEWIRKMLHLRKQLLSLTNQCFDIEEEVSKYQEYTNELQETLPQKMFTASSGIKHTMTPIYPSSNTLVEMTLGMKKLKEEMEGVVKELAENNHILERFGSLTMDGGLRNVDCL

[5] = target: Ribosomal protein S6 kinase alpha-6 (Homo sapiens, UniProt Q9UK32); test: Inhibition of recombinant full length human His6-tagged RSK4 expressed in baculovirus infected sf21 cells using biotin labelled Ahx-KKLNRTLSFAEPG peptide as substrate preincubated with enzyme for 15 mins followed by substrate addition and further incubated for 30 mins in presence of 10 uM of ATP by TR-FRET assay
Sequence of Ribosomal protein S6 kinase alpha-6 (Q9UK32 whole entry): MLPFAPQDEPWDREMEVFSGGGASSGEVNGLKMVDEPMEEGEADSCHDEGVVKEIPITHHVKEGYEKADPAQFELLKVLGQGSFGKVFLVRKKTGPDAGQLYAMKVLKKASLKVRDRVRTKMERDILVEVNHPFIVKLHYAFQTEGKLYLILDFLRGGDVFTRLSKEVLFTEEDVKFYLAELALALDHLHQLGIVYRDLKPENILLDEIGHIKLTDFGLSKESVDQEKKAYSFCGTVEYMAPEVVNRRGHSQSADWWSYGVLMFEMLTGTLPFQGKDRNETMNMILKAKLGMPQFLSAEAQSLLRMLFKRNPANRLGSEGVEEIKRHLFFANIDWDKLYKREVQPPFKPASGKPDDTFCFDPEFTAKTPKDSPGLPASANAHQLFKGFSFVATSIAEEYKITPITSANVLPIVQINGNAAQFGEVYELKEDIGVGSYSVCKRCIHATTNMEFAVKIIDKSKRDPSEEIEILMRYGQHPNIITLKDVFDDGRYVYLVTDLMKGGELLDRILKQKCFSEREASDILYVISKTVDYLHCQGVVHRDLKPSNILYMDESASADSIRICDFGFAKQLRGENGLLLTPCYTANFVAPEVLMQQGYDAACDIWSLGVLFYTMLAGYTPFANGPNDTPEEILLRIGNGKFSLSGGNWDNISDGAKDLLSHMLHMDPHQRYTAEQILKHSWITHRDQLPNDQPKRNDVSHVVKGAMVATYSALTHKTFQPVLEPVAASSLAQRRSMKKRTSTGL

[6] = target: CDK9/cyclin T1 (Homo sapiens, UniProt P50750); test: Inhibition of recombinant full length human His-tagged CDK9/CyclinT1 expressed in baculovirus expression system using biotin-labelled Ttds-YISPLKSPYKISEG peptide as substrate preincubated with enzyme for 15 mins followed by substrate addition and further incubated for 25 mins presence of 10 uM of ATP by TR-FRET assay
Sequence of CDK9/cyclin T1 (O60563 whole entry): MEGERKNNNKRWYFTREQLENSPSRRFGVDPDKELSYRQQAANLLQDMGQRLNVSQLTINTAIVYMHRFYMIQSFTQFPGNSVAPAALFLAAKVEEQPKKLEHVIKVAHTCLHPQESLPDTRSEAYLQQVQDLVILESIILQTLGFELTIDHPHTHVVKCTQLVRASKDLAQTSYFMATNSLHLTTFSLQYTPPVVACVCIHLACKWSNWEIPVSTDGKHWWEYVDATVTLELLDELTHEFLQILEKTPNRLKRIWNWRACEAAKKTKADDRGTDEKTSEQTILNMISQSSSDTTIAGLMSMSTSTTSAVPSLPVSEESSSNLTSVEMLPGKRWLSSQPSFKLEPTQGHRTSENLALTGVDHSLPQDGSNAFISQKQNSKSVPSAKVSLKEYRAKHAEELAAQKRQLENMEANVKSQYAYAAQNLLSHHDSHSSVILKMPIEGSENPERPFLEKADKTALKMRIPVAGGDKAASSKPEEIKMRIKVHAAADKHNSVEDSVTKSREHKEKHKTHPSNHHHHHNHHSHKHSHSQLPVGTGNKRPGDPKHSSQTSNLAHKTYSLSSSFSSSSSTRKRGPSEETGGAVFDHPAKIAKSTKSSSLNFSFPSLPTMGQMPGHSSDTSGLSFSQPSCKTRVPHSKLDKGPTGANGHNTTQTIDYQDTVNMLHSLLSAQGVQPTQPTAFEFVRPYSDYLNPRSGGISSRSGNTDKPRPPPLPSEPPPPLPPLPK
Sequence of CDK9/cyclin T1 (P50750 whole entry): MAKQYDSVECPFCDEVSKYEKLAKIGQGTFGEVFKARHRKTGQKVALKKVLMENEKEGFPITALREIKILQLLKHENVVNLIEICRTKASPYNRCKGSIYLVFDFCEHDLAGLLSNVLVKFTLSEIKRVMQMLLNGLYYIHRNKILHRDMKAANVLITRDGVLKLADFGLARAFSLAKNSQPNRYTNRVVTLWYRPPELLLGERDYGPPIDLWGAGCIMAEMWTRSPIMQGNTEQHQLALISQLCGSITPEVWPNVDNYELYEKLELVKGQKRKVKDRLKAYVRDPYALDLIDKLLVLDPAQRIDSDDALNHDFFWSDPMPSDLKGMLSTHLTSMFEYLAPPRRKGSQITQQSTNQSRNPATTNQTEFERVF

[7] = target: T2, Serine/threonine-protein kinase TBK1; test: Inhibition of recombinant full length human N-terminal His-tagged TBK1 using biotin-labelled Ahx-GDEDFSSFAEPG peptide as substrate preincubated with enzyme for 15 mins followed by substrate addition and further incubated for 30 mins in presence of 1 mM of ATP by TR-FRET assay
[8] = target: T3, Inhibitor of nuclear factor kappa-B kinase subunit epsilon (Homo sapiens, UniProt Q14164); test: Inhibition of recombinant full length human C-terminal GST-tagged IKKepsilon expressed in baculovirus expression system using biotin-labelled Ahx-GDEDFSSFAEPG peptide as substrate preincubated with enzyme for 15 mins followed by substrate addition and further incubated for 30 mins in presence of 10 uM of ATP by TR-FRET assay
T3 sequence (Q14164 whole entry): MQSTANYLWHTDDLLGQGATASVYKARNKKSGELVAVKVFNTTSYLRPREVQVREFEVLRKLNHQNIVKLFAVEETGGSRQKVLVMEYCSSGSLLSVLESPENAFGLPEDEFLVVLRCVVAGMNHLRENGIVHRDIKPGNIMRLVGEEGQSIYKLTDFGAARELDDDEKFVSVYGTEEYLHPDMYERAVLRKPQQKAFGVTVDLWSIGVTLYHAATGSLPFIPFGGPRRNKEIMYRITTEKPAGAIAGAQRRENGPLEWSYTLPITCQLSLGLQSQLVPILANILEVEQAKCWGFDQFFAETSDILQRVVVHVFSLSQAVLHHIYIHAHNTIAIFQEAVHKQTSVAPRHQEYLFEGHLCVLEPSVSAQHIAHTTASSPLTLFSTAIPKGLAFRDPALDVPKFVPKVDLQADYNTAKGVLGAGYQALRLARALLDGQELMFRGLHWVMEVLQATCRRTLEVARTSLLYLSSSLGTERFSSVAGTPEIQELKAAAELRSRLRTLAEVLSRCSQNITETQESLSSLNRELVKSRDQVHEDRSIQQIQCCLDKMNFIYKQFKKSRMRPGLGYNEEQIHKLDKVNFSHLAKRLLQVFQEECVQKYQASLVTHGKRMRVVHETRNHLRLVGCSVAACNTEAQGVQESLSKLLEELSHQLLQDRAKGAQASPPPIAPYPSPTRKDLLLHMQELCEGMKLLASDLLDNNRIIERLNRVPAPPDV

[9] = target: T4, Receptor-type tyrosine-protein kinase FLT3 (Homo sapiens, UniProt P36888); test: Inhibition of recombinant human N-terminal GST-tagged FLT3 (564 to end residues) expressed in sf21 cells using biotin labelled Ahx-GGEEEEYFELVKKKK peptide as substrate preincubated with enzyme for 15 mins followed by substrate addition and further incubated for 45 mins in presence of 10 uM of ATP by TR-FRET assay
T4 sequence (P36888 whole entry): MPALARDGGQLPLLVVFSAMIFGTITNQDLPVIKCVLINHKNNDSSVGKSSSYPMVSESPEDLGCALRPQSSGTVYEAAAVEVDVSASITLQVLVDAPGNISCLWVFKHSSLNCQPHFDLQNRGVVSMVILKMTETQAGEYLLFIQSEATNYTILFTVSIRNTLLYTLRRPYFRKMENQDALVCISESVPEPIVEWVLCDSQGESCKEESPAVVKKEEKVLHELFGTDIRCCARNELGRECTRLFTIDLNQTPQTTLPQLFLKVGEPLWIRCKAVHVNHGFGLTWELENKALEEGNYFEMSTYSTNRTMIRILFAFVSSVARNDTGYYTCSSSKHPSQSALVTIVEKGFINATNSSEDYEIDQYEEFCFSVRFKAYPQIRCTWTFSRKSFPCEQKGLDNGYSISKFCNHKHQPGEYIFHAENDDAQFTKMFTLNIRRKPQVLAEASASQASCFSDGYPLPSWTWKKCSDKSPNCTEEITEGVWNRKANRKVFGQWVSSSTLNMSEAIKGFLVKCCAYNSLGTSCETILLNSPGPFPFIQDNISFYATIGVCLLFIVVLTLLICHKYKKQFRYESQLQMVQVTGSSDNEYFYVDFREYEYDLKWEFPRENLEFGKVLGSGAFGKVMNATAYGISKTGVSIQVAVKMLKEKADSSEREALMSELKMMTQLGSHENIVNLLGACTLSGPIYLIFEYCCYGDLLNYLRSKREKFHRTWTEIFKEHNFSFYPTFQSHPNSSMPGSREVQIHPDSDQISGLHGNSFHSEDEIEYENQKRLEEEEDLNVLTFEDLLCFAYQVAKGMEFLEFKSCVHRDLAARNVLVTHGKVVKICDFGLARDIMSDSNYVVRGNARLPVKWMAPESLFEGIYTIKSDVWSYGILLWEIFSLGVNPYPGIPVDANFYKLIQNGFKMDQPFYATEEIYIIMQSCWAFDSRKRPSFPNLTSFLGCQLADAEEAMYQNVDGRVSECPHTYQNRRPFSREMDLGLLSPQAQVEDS

[10] = target: T5, IKK epsilon/TBK1 (Homo sapiens, UniProt Q14164+Q9UHD2); test: Inhibition of IKKepsilon/TBK1 in human MDB-MB-231 cells transduced with lentiviral vector expressing human IRF3 assessed as decrease in poly(I:C)-stimulated IRF3 phosphorylation at S385/386 residues preincubated for 1 hr followed by poly(I:C) addition and measured after 1 hr; assay type: cell-based
T5 sequence (Q14164 whole entry): T3 sequence (Q14164 whole entry)
T5 sequence (Q9UHD2 whole entry): T2 sequence (Q9UHD2 whole entry)

[11] = Apparent permeability of compound across basal to apical membrane in human Caco2 cells at 2 uM in DMSO after 2 hrs by LC-MS/MS analysis; assay type: ADME, cell-based; conditions: Caco-2
[12] = Efflux ratio of apparent permeability across basolateral to apical membrane over apical to basolateral membrane in human Caco2 cells; assay type: ADME, cell-based; conditions: Caco-2
[13] = Apparent permeability of compound across apical to basal membrane in human Caco2 cells at 2 uM in DMSO after 2 hrs by LC-MS/MS analysis; assay type: ADME, cell-based; conditions: Caco-2

## C[C@H](c1ccnc(Nc2nc3ccc(-c4cnn(CC5CCC5)c4)cc3[nH]2)c1)N1CCN(C(=O)CC(F)(F)F)CC1
[1]
  IC50: 15 nM
[2]
  IC50: 5420 nM
[3]
  IC50: 3710 nM
[4]
  IC50: 2 nM
[5]
  IC50: 325 nM
[6]
  IC50: > 20000 nM
[7]
  IC50: 6 nM
[8]
  IC50: 4 nM
[9]
  IC50: 357 nM
[10]
  IC50: 93 nM

## CCn1cc(-c2ccc3nc(Nc4cc(CN5CCN(C(=O)CC(F)(F)F)CC5)ccn4)[nH]c3c2)cn1
[11]
  Papp B→A at 2 h, 2 µM: 17.3 ×10⁻⁶ cm/s
[12]
  efflux ratio: 10
[13]
  Papp A→B at 2 h, 2 µM: 1.7 ×10⁻⁶ cm/s
[5]
  IC50: 8850 nM
[6]
  IC50: 1460 nM
[7]
  IC50: 530 nM
[8]
  IC50: 98 nM
[9]
  IC50: 17 nM
[10]
  IC50: 1580 nM

## O=C(NCC1CC1)c1ccc2nc(Nc3cc(CN4CCN(C(=O)CC(F)(F)F)CC4)ccn3)[nH]c2c1
[11]
  Papp B→A at 2 h, 2 µM: 15.5 ×10⁻⁶ cm/s
[12]
  efflux ratio: 40
[2]
  IC50: > 33000 nM
[13]
  Papp A→B at 2 h, 2 µM: 0.39 ×10⁻⁶ cm/s
[3]
  IC50: 3360 nM
[4]
  IC50: 93 nM
[6]
  IC50: > 20000 nM
[7]
  IC50: 1390 nM
[8]
  IC50: 80 nM

## N#Cc1ccc2nc(Nc3cc(CN4CCN(C(=O)CC(F)(F)F)CC4)ccn3)[nH]c2c1
[11]
  Papp B→A at 2 h, 2 µM: 26.8 ×10⁻⁶ cm/s
[12]
  efflux ratio: 8.3
[13]
  Papp A→B at 2 h, 2 µM: 3.2 ×10⁻⁶ cm/s
[4]
  IC50: 29 nM
[6]
  IC50: 5 nM
[7]
  IC50: 618 nM
[8]
  IC50: 17 nM
[10]
  IC50: 2030 nM
